In ChEMBL document CHEMBL4725370, “Discovery of Proteolysis-Targeting Chimera Molecules that Selectively Degrade the IRAK3 Pseudokinase” (J Med Chem, 2020):
Activity calls are given as the source filed them. No cut-off for these calls is given here.

Columns and labels:
[1] = target: T1, Protein cereblon/Interleukin-1 receptor-associated kinase 3 (Homo sapiens, UniProt Q9Y616+Q96SW2); experiment: Protac activity at CRBN/IRAK3 in human THP1 cells assessed as induction of IRAK3 degradation at 0.1 uM measured after 2 to 72 hrs by Western blot analysis; type: cell-based; details: THP-1, time hrs 2-72
[2] = target: Cereblon/Ikaros (Homo sapiens) (UniProt Q96SW2+Q13422); experiment: Protac activity at CRBN/IKZF1 in LPS-induced human THP1 cells assessed as induction of IKZF1 degradation at 0.1 uM measured after 6 hrs by HPLC-MS based global proteomic analysis; type: cell-based; details: THP-1
[3] = target: T2, Serine/threonine-protein kinase haspin (Homo sapiens, UniProt Q8TF76); experiment: Inhibition of GSG2 (unknown origin)
T2 sequence (Q8TF76 whole entry): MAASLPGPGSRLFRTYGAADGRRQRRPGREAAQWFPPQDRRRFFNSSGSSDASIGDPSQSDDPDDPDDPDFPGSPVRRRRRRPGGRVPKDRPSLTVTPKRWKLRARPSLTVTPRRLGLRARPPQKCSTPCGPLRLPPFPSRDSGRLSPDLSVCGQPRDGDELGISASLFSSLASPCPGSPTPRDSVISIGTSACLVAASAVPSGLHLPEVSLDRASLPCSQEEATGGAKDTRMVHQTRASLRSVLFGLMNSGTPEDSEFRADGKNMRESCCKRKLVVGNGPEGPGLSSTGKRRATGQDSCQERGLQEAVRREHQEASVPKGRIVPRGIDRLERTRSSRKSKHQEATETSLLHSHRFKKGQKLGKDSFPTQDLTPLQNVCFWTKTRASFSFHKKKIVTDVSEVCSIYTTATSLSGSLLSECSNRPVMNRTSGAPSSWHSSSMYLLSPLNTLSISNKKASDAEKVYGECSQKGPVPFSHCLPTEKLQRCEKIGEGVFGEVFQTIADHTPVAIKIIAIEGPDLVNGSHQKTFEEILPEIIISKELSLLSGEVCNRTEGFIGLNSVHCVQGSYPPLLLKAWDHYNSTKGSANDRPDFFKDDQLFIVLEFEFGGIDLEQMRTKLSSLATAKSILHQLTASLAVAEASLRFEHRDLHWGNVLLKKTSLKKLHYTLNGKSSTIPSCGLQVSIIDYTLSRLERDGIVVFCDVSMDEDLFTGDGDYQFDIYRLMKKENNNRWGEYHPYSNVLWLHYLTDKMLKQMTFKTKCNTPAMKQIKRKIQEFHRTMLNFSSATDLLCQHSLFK

Protein cereblon = Protein cereblon (Homo sapiens, UniProt Q96SW2); experiment: Inhibition of CRBN (unknown origin)
[4] = target: T1, Protein cereblon/Interleukin-1 receptor-associated kinase 3; experiment: Protac activity at CRBN/IRAK3 in human THP1 cells assessed as induction of IRAK3 degradation at 0.1 uM measured after 24 hrs by Western blot analysis; type: cell-based; details: THP-1
[5] = target: T2, Serine/threonine-protein kinase haspin; experiment: Displacement of polymer supported probe 25 binding to GSG2 in human THP-1 cell lysates preincubated for 45 mins under shaking condition followed by probe addition and measured after 30 mins by mass spectrometry based chemoproteomic analysis; type: subcellular; details: read-out: Kd(app)
[6] = target: T1, Protein cereblon/Interleukin-1 receptor-associated kinase 3; experiment: Protac activity at CRBN/IRAK3 in human THP1 cells assessed as induction of IRAK3 degradation at 0.1 uM measured after 6 hrs in presence of 10 uM thalidomide by Western blot analysis; type: cell-based; details: THP-1
[7] = target: Serine/threonine-protein kinase haspin (Homo sapiens) (UniProt Q8TF76); experiment: Inhibition of GSG2 (unknown origin) at 0.1 uM relative to control
[8] = Octanol/buffer partition coefficient, log D of the compound at pH 7.4 by shake-flask method; type: physicochemical
THP-1 [9] = experiment: Selectivity ratio of Kd(app) for displacement of polymer supported probe 25 binding to IRAK1 in human THP-1 cell lysates to Kd(app) for displacement of polymer supported probe 25 binding to IRAK3 in human THP-1 cell lysates
[10] = target: T1, Protein cereblon/Interleukin-1 receptor-associated kinase 3; experiment: Protac activity at CRBN/IRAK3 in LPS-induced human THP1 cells assessed as induction of IRAK3 degradation after 16 hrs by Western blot analysis relative to control; type: cell-based; details: THP-1
[11] = target: Cyclin-C/Cyclin-dependent kinase 19 (Homo sapiens, UniProt P24863+Q9BWU1); experiment: Inhibition of CDK11/cyclin C (unknown origin); type: protein-complex assay
[12] = target: Delta(24)-sterol reductase (Homo sapiens) (UniProt Q15392); experiment: Displacement of polymer supported probe 25 binding to DHCR24 in human THP-1 cell lysates at 30 uM preincubated for 45 mins under shaking condition followed by probe addition and measured after 30 mins by mass spectrometry based chemoproteomic analysis relative to control; type: subcellular
CDK8/Cyclin C = CDK8/Cyclin C (Homo sapiens, UniProt P49336); experiment: Inhibition of CDK8/cyclin C (unknown origin); type: protein-complex assay
[13] = target: Protein cereblon/Eukaryotic peptide chain release factor GTP-binding subunit ERF3A (Homo sapiens) (UniProt Q96SW2+P15170); experiment: Protac activity at CRBN/GSPT1 in LPS-induced human THP1 cells assessed as induction of GSPT1 degradation at 0.1 uM measured after 6 hrs by HPLC-MS based global proteomic analysis; type: cell-based; details: THP-1
[14] = target: T3, Interleukin-1 receptor-associated kinase 4 (Homo sapiens, UniProt Q9NWZ3); experiment: Displacement of polymer supported probe 25 binding to IRAK4 in human THP-1 cell lysates preincubated for 45 mins under shaking condition followed by probe addition and measured after 30 mins by mass spectrometry based chemoproteomic analysis; type: subcellular; details: read-out: Kd(app)
T3 sequence (Q9NWZ3 whole entry): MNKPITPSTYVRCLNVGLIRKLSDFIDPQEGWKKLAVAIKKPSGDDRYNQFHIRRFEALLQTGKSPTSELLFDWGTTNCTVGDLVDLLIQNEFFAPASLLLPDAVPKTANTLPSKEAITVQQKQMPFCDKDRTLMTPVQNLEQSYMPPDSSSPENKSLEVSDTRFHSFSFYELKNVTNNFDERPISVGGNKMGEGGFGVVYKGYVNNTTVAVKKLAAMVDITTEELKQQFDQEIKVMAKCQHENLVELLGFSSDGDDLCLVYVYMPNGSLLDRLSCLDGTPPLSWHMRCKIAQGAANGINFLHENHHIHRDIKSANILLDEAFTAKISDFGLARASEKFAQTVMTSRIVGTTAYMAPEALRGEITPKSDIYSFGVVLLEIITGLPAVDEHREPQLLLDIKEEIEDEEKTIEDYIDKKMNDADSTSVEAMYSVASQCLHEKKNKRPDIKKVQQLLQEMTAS

[15] = target: T3, Interleukin-1 receptor-associated kinase 4; experiment: Inhibition of recombinant human full-length His-tagged IRAK4 expressed in baculovirus expression system using 5-FAM-IPTSPITTTYFFFKKK-COOH as substrate measured after 240 mins by mobility shift assay
[16] = target: NT-3 growth factor receptor (Homo sapiens, UniProt Q16288); experiment: Inhibition of NTRK3 (unknown origin)
THP-1 [17] = experiment: Selectivity ratio of Kd(app) for displacement of polymer supported probe 25 binding to GSG2 in human THP-1 cell lysates to Kd(app) for displacement of polymer supported probe 25 binding to IRAK3 in human THP-1 cell lysates

T1 sequence (Q96SW2 whole entry, looked up): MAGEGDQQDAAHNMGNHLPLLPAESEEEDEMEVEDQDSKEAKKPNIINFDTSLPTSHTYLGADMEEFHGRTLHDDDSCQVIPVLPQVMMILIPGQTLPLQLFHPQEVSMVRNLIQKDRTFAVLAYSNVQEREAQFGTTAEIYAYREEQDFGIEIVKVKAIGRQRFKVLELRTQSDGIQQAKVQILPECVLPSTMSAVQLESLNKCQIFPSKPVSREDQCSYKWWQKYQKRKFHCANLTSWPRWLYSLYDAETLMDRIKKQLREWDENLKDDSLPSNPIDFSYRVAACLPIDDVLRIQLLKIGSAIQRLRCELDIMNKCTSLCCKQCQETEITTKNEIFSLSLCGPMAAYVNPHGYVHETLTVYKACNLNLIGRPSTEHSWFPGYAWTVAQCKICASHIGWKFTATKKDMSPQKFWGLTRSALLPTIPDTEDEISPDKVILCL
T1 sequence (Q9Y616 whole entry, looked up): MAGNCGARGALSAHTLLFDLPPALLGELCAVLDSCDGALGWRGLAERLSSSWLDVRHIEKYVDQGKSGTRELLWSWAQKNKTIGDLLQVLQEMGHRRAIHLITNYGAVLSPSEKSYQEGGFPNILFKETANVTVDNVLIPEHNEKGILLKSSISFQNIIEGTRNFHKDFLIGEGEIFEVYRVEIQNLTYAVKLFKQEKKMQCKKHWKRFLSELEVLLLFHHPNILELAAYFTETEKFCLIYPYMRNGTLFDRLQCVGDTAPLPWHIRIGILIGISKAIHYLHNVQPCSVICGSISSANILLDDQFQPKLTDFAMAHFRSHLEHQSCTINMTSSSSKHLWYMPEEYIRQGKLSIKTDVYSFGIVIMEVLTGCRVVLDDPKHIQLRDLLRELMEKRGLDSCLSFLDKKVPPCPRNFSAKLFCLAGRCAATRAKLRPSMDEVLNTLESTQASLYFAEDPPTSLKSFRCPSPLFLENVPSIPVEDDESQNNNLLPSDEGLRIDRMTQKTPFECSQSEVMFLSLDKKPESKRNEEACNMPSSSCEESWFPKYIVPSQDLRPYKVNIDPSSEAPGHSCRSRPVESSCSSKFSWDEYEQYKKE
NT-3 growth factor receptor, sequence (Q16288 whole entry): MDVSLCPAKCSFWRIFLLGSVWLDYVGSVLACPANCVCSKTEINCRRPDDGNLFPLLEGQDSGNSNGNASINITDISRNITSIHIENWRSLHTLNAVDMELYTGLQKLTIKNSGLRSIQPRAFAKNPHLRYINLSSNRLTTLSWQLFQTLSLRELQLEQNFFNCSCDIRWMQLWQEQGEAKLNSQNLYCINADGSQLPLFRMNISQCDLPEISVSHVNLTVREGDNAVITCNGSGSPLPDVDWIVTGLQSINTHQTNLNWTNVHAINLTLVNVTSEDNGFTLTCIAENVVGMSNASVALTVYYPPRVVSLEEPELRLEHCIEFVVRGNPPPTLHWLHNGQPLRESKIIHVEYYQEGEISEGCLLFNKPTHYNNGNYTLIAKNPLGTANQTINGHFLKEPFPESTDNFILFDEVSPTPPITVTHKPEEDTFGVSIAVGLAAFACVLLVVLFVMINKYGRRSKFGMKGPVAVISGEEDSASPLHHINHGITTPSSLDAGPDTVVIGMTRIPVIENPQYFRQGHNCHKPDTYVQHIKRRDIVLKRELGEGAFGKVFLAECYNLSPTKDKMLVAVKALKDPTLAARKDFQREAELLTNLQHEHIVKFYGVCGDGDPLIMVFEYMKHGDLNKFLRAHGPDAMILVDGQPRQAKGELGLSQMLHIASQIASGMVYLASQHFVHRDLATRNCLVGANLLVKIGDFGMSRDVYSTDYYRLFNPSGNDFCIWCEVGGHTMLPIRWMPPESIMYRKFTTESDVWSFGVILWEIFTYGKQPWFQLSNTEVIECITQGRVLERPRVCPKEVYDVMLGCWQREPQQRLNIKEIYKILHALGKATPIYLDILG
Protein cereblon, sequence (Q96SW2 whole entry): as the sequence (Q96SW2 whole entry, looked up) above
CDK8/Cyclin C, sequence (P49336 whole entry): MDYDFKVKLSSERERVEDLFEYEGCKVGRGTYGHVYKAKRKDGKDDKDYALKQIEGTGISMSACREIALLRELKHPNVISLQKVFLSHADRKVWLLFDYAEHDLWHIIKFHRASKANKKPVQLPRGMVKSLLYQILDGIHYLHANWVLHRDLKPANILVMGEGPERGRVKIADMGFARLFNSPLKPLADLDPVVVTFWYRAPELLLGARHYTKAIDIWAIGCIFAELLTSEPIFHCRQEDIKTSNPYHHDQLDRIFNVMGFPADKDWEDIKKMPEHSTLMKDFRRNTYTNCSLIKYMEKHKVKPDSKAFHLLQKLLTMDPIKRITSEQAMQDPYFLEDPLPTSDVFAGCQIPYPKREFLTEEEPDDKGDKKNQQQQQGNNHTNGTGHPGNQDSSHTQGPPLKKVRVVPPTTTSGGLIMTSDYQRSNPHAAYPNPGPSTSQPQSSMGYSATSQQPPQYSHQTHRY
CDK8/Cyclin C, sequence (P24863 whole entry, further chain): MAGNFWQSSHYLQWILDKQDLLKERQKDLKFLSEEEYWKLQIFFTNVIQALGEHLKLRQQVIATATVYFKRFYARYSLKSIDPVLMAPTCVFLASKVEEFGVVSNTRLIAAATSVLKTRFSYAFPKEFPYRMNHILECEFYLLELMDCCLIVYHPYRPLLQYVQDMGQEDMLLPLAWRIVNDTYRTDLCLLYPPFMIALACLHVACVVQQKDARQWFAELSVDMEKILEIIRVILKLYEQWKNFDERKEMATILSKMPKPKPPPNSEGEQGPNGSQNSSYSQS
Delta(24)-sterol reductase (Homo sapiens), sequence (Q15392 whole entry): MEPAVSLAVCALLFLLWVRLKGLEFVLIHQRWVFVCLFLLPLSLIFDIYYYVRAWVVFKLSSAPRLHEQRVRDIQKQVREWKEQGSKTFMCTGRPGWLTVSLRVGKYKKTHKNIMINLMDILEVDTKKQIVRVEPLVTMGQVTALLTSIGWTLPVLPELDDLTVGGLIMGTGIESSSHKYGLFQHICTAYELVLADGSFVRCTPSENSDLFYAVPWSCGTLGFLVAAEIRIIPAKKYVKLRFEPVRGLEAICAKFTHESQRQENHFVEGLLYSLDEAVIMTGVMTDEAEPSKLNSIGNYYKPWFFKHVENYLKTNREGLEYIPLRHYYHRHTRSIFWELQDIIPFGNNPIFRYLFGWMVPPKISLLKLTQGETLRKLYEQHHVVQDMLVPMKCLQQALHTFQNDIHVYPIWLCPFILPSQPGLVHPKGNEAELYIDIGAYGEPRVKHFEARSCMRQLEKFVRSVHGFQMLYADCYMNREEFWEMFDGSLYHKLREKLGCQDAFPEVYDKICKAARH
Cyclin-C/Cyclin-dependent kinase 19, sequence (Q9BWU1 whole entry): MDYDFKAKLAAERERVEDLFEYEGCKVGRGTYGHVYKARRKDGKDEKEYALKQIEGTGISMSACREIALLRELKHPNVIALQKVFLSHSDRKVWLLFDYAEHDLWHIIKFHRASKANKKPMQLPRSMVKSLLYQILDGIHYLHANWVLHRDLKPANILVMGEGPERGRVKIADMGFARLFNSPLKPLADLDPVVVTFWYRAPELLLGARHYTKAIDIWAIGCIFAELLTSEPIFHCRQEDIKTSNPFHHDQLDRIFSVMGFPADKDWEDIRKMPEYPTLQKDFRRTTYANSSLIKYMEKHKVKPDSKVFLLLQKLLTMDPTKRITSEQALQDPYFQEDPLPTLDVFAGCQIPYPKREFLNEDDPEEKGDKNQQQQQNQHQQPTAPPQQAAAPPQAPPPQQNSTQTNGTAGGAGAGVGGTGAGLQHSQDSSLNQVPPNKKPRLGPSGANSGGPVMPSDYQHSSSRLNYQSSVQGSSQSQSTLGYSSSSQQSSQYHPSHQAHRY
Cyclin-C/Cyclin-dependent kinase 19, sequence (P24863 whole entry): as the sequence (P24863 whole entry, further chain) above
Protein cereblon/Eukaryotic peptide chain release factor GTP-binding subunit ERF3A (Homo sapiens), sequence (P15170 whole entry, looked up): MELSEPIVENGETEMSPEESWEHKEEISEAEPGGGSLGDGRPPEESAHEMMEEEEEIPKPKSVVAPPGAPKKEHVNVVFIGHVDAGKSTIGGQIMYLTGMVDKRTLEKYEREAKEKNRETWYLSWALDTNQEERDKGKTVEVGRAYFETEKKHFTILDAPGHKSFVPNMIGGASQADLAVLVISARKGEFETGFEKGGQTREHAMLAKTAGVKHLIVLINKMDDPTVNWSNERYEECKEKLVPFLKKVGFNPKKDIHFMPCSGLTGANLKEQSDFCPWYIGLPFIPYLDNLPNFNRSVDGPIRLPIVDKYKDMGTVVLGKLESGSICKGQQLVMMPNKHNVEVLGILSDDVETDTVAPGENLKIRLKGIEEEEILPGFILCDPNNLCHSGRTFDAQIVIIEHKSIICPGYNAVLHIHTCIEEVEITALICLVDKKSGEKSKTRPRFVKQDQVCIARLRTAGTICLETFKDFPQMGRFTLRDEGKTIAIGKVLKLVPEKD
Protein cereblon/Eukaryotic peptide chain release factor GTP-binding subunit ERF3A (Homo sapiens), sequence (Q96SW2 whole entry, looked up): as the sequence (Q96SW2 whole entry, looked up) above

- Activity [1]: Active
- Activity [2]: inactive
- IC50 [3]: 110 nM
- IC50 (Protein cereblon): 460 nM
- Activity [4]: Active
- Kd [5]: 780 nM
- Activity [6]: inactive
- inhibition [7]: 57%
- logD [8]: 3.1
- Emax [10]: 98%
- IC50 [11]: 16 nM
- inhibition [12]: < 40%
- IC50 (CDK8/Cyclin C): 36 nM
- Activity [13]: inactive
- Kd [14]: 3600 nM
- IC50 [15]: 1400 nM
- IC50 [16]: 100 nM
SMILES: CC(C)c1ccn2ncnc(N[C@H]3CC[C@@H](N4CCN(C(=O)CCC(=O)N5CCC(CCN6CCN(c7ccc8c(c7)C(=O)N(C7CCC(=O)NC7=O)C8=O)CC6)CC5)CC4)CC3)c12 (some centres undefined)
- Selectivity ratio (THP-1 [9]): 82
- Selectivity ratio (THP-1 [17]): 23
